# Experimental data from patent US12213959B2, “Use of 3-O-sulfamoyloxy-7β-methyl-d-homo-6-oxaestra-1,3,5(10),8(9)-tetraen-17a-one to treat breast cancer” (priority 2018, dated 2025).
# Marks after values point to notes of the source that are not given here.
# Assays:
# [1] = system: breast cancer cells MCF-7; details: cited from earlier work
# [2] = system: breast tumours in FBV/N female mice, transgenic for HER-2/neu; assay: Antitumour activity on breast tumours of HER-2/neu transgenic mice; type: in vivo; details: for Relative change of the average total volume of tumours to that of Day −1 (M): Tamoxifen-1, 4.0 mg/kg daily i.g.; for Average total volume of tumours in mice (M) / Average volume of tumors existing at the beginning of the experiment (M) / TGI (average total tumour volume) / TGI (average tumor volume): Tamoxifen-1 group; for Average total volume of tumours in mice (M) / Average volume of tumors existing at the beginning of the experiment (M): 4.0 mg/kg daily i.g.; for TGI (average total tumour volume) / TGI (average tumor volume): 4.0 mg/kg
# Method: The study was carried out on female FVB mice transgenic for HER-2/neu of the conventional category, the strain being obtained from the mouse bank Charles River Laboratories (Italy).
# Duration of the administration course was 27-28 days.
# The control groups were given the olive oil (placebo).
# The macroscopically detectable tumor nodes were measured in the animals once per week during the weighing process.
# [3] = Body weight and tolerability during the antitumour study; details: for Average body weight of mice (M): 4.0 mg/kg daily i.g.; for Body weight: Tamoxifen-2, 4 mg/kg, end of observation
# Method: The study medicament was administered i.g. using a metal atraumatic gavage (with the procedure corresponds to the oral route of administration in clinical settings). […] Ex tempore solutions of the medicament for administration were prepared in olive oil (refined olive oil supplemented with unrefined extra virgin olive oil available under Global Village “Clasico” trademark, lot L:183351116, expiry date 26.04.2020, BAIEO, Spain). The administered volume was 0.1 ml per 10 g of a mouse body weight (0.2 ml of a ready-to-use formulation for a mouse of 20 g). The medicament administration was started 24 hours after the randomization. Duration of the administration course was 27-28 days.
# This dose corresponds to a human daily dose of 20 mg/kg.
# The evaluation criteria included the clinical observation data, animals body weights, time of death (if applicable), tumor growth over time, pathomorphological examination data (verification of a neoplasm during autopsy, assessment of toxic effects by macroscopic presentation of changes in the internal organs).
# The animals body weights were recorded before the first administration of the medicaments and then twice per week using a verified high-speed electronic laboratory balance Ohaus Scout Pro (USA) with a maximum load of 2000 g and a measurement pitch of 0.1 g.
# [4] = system: MCF-7 human cells culture (breast adenocarcinoma); assay: Proliferative activity of MCF-7 cells; type: cell-based
# Method: The study analysis was carried out on an passaged MCF-7 human cells culture culture (breast adenocarcinoma). Normal human dermal fibroblasts (HDF) of early passages were used as a negative control.
# The cells were cultivated in Carrel vials in DMEM/F12 medium (Biolot) with 1.0% of antibiotic-free fetal bovine embryonic serum (Biolot) added in the 5% CO2 atmosphere, at 37° C.
# The cells were seeded on Carrel vials at 50×10^4 cells per flask. To study the proliferative activity of the cells under conditions of sulfatase inhibition, 24 hours after seeding the culture medium […], and then these tumor cell lines were incubated for various periods of time (24 to 72 hrs). The inhibitor was dissolved in DMSO. […] To exclude the cytotoxic effect of DMSO, a control sample comprising DMSO without sulfatase inhibitor was prepared.
# To exclude nonspecific detrimental effects of the compounds, normal human skin fibroblasts were used. Then the cells were detached with the versene-trypsin solution (Biolot), plated onto Carrel vials containing a fresh complete culture medium. The cells were counted when untreated control cells reached the maximum cell density per unit of surface area of a culture flask (monolayer), and their number was set as 100%. The proliferative activity of all of the studied cell cultures exposed to sulfatase inhibitors was determined in triplicate.
# [5] = system: uterine body; assay: Hormonal effects on the uterine body (uterine weight); type: in vivo, mice; details: Tamoxifen-2, 4 mg/kg, end of observation
# Method: The hormonal effects of the medicament on the uterine body was analyzed by comparing the uterine weight without uterine horns at the end of the observation period (Table 13).
# [6] = in vivo; cited from earlier work
compound,measurement,setting,value
"C[C@H]1Oc2cc(OS(N)(=O)=O)ccc2C2=C1C1=CCC[C@H](OS(N)(=O)=O)[C@@]1(C)CC2 [3,17αβ-disulfamoyloxy-7β-methyl-D-homo-6-oxa-estra-1,3,5(10), 8,14-pentaen]",growth of breast cancer cells MCF-7,[1],inhibitor of the growth
"CC/C(=C(\c1ccccc1)c1ccc(OCCN(C)C)cc1)c1ccccc1 [Tamoxifen, reference compound]",Relative change of the average total volume of tumours to that of Day −1 (M),[2]; Day 6,40%
same,Relative change of the average total volume of tumours to that of Day −1 (M),[2]; Day 13,80** %
same,Relative change of the average total volume of tumours to that of Day −1 (M),[2]; Day −1,0%
same,Average total volume of tumours in mice (M),[2]; Day 6,1 0.76 cm^3
same,Average volume of tumors existing at the beginning of the experiment (M),[2]; Day 6,0.26 cm^3
same,Average total volume of tumours in mice (M),[2]; Day 13,0.88 cm^3
same,Average volume of tumors existing at the beginning of the experiment (M),[2]; Day 13,0.3 cm^3
same,Average volume of tumors existing at the beginning of the experiment (M),[2]; Day 20,0.47 cm^3
same,Average volume of tumors existing at the beginning of the experiment (M),[2]; Day 27,0.58 cm^3
same,Average total volume of tumours in mice (M),[2]; Day −1,0.66 cm^3
same,Average volume of tumors existing at the beginning of the experiment (M),[2]; Day −1,0.23 cm^3
same,TGI (average total tumour volume),"[2]; vs Control-2, Day 6",−162%
same,TGI (average tumor volume),"[2]; vs Control-2, Day 6",−100%
same,TGI (average total tumour volume),"[2]; vs Control-2, Day 13",−35%
same,TGI (average tumor volume),"[2]; vs Control-2, Day 13",−7%
same,TGI (average total tumour volume),"[2]; vs Control-2, Day 20",−39%
same,TGI (average tumor volume),"[2]; vs Control-2, Day 20",−9%
same,TGI (average total tumour volume),"[2]; vs Control-2, Day 27",−21%
same,TGI (average tumor volume),"[2]; vs Control-2, Day 27 (end of observation)",5%
same,TGI (average total tumour volume),"[2]; vs Control-2, Day −1",−247%
same,TGI (average tumor volume),"[2]; vs Control-2, Day −1",−188%
same,relative change in the total volume of tumours versus Control-3 group,[2]; Tamoxifen-2 group,exceeded the value across the Control-3 group
same,average volume of tumours exceeded the control group by,"[2]; Tamoxifen-2 group, end of the experiment",31%
same,Average body weight of mice (M),"[3]; Tamoxifen-1 group, Day 1",27.7 g
same,Average body weight of mice (M),"[3]; Tamoxifen-1 group, Day 6",26.5 g
same,Average body weight of mice (M),"[3]; Tamoxifen-1 group, Day 13",27.3 g
same,Average body weight of mice (M),"[3]; Tamoxifen-1 group, Day 20",27.5 g
same,Average body weight of mice (M),"[3]; Tamoxifen-1 group, Day 27",28.2 g
same,Body weight,[3]; All mice,34.2 ± 1.4 g
same,Body weight,[3]; estrous cycle phase E,34.2 ± 1.4 g
same,Average body weight of mice (M),"[3]; Tamoxifen-2 group, Day 1",31.0 g
same,Average body weight of mice (M),"[3]; Tamoxifen-2 group, Day 7",32.0 g
same,Average body weight of mice (M),"[3]; Tamoxifen-2 group, Day 14",32.9 g
same,Average body weight of mice (M),"[3]; Tamoxifen-2 group, Day 21",32.8 g
same,Average body weight of mice (M),"[3]; Tamoxifen-2 group, Day 28",34.2 g
same,"inhibition of proliferation of MCF-7 tumour cells, compared with steroid of formula 2",[4],inhibited to the same extent
same,Uterine weight,[5]; All mice,28 ± 1 MI
same,Uterine weight,[5]; estrous cycle phase E,28 ± 1 MI
C[C@]12CC[C@@H]3c4ccc(OS(N)(=O)=O)cc4CC[C@H]3[C@@H]1CCC2=O [estrone sulfamate],uterotropic activity,[6],strong uterotropic activity
